Assay type in all cases: cell-based
In experiment [1] the target is T1, TYK2 (Homo sapiens, UniProt P29597). The experiment is described as follows: TYK2 degradation MSD assay in human PBMC cells. On the set-up: endogenous in cells; host or cells: human PBMC. The settings on record: 4 to 24 hours incubation, read-out: TYK2 MSD DC50 rating in human PBMC. The gist of the method:
(§1)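 0.4 million cells/well; cpd 9-dose 1:3 titration, top 1–10 μM; 4–24 h, 37° C, 5% CO2; RIPA lysis; TYK2 capture/detection sandwich on MSD, SULFO-TAG anti-rabbit secondary; DC50 via 4-parameter fit.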

Experiment [2] has as its target T1, TYK2. The experiment is described as follows: TYK2 degradation MSD assay in OCI-LY10 cells. On the set-up: endogenous in cells; host or cells: EBV-B cells. The settings on record: 4 to 24 hours incubation, read-out: TYK2 MSD DC50 rating in OCI-LY10. The gist of the method:
as §1

Experiment [3] has as its target T1, TYK2. The experiment is described as follows: TYK2 degradation MSD assay in EBV-B cells. The conditions noted are these: 4 to 24 hours incubation, read-out: TYK2 MSD DC50 rating in EBV-B. Also on record: endogenous in cells; host or cells: EBV-B cells. The method, boiled down:
as §1

Each structure is given as a SMILES string.

The values that follow come from US20250051338A1, “TYK2 DEGRADERS AND USES THEREOF” (Kymera Therapeutics, Inc., priority 2021, published 2025).

T1 sequence (P29597 whole entry): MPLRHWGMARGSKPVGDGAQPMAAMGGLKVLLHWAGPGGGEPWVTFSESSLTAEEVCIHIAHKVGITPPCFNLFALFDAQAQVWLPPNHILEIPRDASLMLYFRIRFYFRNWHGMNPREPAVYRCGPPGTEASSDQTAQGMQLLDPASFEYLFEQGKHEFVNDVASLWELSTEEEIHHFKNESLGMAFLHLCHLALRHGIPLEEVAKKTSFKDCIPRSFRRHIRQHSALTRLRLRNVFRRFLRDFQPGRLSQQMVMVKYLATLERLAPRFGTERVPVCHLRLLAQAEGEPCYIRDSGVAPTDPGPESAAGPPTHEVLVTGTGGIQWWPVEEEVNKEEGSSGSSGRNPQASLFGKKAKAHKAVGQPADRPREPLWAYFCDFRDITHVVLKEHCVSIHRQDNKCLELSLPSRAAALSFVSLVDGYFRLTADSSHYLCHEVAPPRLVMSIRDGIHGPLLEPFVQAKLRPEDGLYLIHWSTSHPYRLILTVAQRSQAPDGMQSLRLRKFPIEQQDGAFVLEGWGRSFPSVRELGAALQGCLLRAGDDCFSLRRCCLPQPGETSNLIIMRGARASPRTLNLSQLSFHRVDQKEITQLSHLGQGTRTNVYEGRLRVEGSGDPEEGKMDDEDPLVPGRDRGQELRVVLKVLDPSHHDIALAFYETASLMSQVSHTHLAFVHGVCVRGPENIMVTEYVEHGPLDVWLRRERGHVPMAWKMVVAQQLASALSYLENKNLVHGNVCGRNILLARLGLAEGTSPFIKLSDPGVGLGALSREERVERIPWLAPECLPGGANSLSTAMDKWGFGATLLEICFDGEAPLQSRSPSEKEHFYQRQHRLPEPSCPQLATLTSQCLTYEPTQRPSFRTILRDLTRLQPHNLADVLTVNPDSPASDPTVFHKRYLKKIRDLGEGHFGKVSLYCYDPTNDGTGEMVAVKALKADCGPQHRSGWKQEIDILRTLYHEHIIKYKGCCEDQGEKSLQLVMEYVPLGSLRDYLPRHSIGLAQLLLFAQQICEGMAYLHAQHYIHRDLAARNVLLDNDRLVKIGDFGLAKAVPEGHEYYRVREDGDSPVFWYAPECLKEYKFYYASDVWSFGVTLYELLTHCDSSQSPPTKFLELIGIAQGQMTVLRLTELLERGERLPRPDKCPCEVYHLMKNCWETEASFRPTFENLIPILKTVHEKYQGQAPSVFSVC

Usually DC50 stands for the concentration at which degradation of the target reaches its halfway point. In the case of `CNc1cc(N2CCc3c(N4CCN(C5CCN(c6ccc7c(c6)n(C)c(=O)n7C6CCC(=O)NC6=O)CC5)CC4)cccc32)nn2c(C(=O)N[C@@H]3C[C@@H]3F)cnc12` (stereo partly drawn) [Example K645], the results for the DC50 at TYK2 [1], on TYK2 [2] and at TYK2 [3] were > 100 nM, < 1 nM and > 100 nM, respectively.
Turning to `CNc1cc(N2CCc3c(N4CCN(C5CC6(CCN(c7ccc8c(c7)n(C)c(=O)n8C7CCC(=O)NC7=O)CC6)C5)CC4)cccc32)nn2c(C(=O)N[C@@H]3C[C@@H]3F)cnc12` (stereo partly drawn) [Example K646], the DC50 on TYK2 [1] was > 100 nM; on TYK2 [2], < 1 nM; at TYK2 [3], > 100 nM.
With `CNc1cc(Nc2cccc(C3CCN(C(=O)Cc4cccc5c4n(C)c(=O)n5C4CCC(=O)NC4=O)CC3)c2)nn2c(C(=O)N[C@@H]3C[C@@H]3F)cnc12` (stereo partly drawn) [Example K647], the DC50 at TYK2 [1], at TYK2 [2] and on TYK2 [3] was > 100 nM each time.
With `CNc1cc(Nc2ccc(F)c(-c3ccc(Cc4ccc(-c5ccc6c(c5)n(C)c(=O)n6C5CCC(=O)NC5=O)cc4)cn3)c2OC)nn2c(C(=O)N[C@@H]3C[C@@H]3F)cnc12` (stereo partly drawn) [Example K648], the DC50 on TYK2 [1] was > 100 nM; on TYK2 [2], 1 to 10 nM; at TYK2 [3], > 100 nM.
Regarding `CNc1cc(N2CCc3c(-c4cc(N5CCN([C@H]6CC[C@H](c7ccc8c(c7)n(C)c(=O)n8C7CCC(=O)NC7=O)CC6)CC5)ccn4)cccc32)nn2c(C(=O)NC3CC3F)cnc12` (stereo partly drawn) [Example K650, N-[(1R,2S)-2-fluorocyclopropyl]-8-(methylamino)-6-[4-(4-{4-[(1r,4r)-4-[1-(2,6-dioxopiperidin-3-yl)-3-methyl-2-oxo-1,3-benzodiazol-5-yl]cyclohexyl]piperazin-1-yl}pyridin-2-yl)-2,3-dihydroindol-1-yl]imidazo[1,2-b]pyridazine-3-carboxamide], the DC50 on TYK2 [1] is > 100 nM; at TYK2 [2], < 1 nM; on TYK2 [3], > 100 nM.
As to `CNc1cc(N2CCc3c(-c4cc(N5CCN(c6ccc7c(c6)n(C)c(=O)n7C6CCC(=O)NC6=O)CC5)ccn4)cccc32)nn2c(C(=O)C[C@@H]3C[C@@H]3F)cnc12` (stereo partly drawn) [Example K652], the DC50 at TYK2 [1], at TYK2 [2] and on TYK2 [3] was > 100 nM throughout.
As to `CNc1cc(N2CCc3c(-c4cc(N5CCN(c6cccc7c6n(C)c(=O)n7C6CCC(=O)NC6=O)CC5)ccn4)cccc32)nn2c(C(=O)N[C@@H]3C[C@@H]3F)cnc12` (stereo partly drawn) [Example K653], the DC50 at TYK2 [1], at TYK2 [2] and at TYK2 [3] was > 100 nM each time.
Regarding `CNc1cc(N2CCc3c(-c4cc(N5CCN(CC6CCN(c7cccc8c7n(C)c(=O)n8C7CCC(=O)NC7=O)CC6)CC5)ccn4)cccc32)nn2c(C(=O)NC3CC3F)cnc12` (stereo not drawn) [Example K656], the results for the 50% degradation concentration (DC50) at TYK2 [1], at TYK2 [2] and on TYK2 [3] were > 100 nM, 1 to 10 nM and > 100 nM, respectively.
Regarding `CNc1cc(N2CCc3c(-c4cc(CN5CCN(c6ccc7c(c6)n(C)c(=O)n7C6CCC(=O)NC6=O)CC5)ccn4)cccc32)nn2c(C(=O)NC3CC3F)cnc12` (stereo not drawn) [Example K657], the DC50 is > 100 nM on TYK2 [1], < 1 nM on TYK2 [2] and > 100 nM at TYK2 [3].
As to `CNc1cc(N2CCc3c(-c4cc(CN5CCN(c6ccc(-c7ccc8c(c7)n(C)c(=O)n8C7CCC(=O)NC7=O)cc6)CC5)ccn4)cccc32)nn2c(C(=O)N[C@@H]3C[C@@H]3F)cnc12` (stereo partly drawn) [Example K658], the figures for the DC50 on TYK2 [1], at TYK2 [2] and at TYK2 [3] were > 100 nM, 1 to 10 nM and > 100 nM, respectively.
Consider `CNc1cc(Nc2cccnc2OCC2CCN(C3CCN(c4ccc5c(c4)n(C)c(=O)n5C4CCC(=O)NC4=O)CC3)CC2)nn2c(C(=O)NC3CC3F)cnc12` (stereo not drawn) [Example K659], for which the DC50 at TYK2 [1] was > 100 nM; on TYK2 [2] it was 1 to 10 nM; at TYK2 [3], > 100 nM.
Consider `CNc1cc(Nc2cccc(-c3ccc(CN4CCC(N5CCN(c6ccc7c(c6)n(C)c(=O)n7C6CCC(=O)NC6=O)CC5)C(F)(F)C4)cn3)c2OC)nn2c(C(=O)NC3CC3F)cnc12` (stereo not drawn) [Example K660], for which the DC50 is > 100 nM at TYK2 [1], < 1 nM on TYK2 [2] and > 100 nM at TYK2 [3].
In the case of `CNC(=O)c1cnc(Nc2ccc(CN3CCC(N(C)c4cccc5c4n(C)c(=O)n5C4CCC(=O)NC4=O)CC3)cn2)cc1Nc1cccc(-c2ncc(F)cn2)c1OC` (stereo not drawn) [Example K700], the DC50 on TYK2 [1] is < 1 nM; at TYK2 [2], < 1 nM; at TYK2 [3], > 100 nM.
In the case of `CNC(=O)c1cnc(Nc2ccc(CN3CCN(CC#Cc4ccc5c(c4)n(C)c(=O)n5C4CCC(=O)NC4=O)CC3)cn2)cc1Nc1cccc(-c2ncc(F)cn2)c1OC` (stereo not drawn) [Example K701], the figures for the DC50 at TYK2 [1], on TYK2 [2] and at TYK2 [3] were < 1 nM, < 1 nM and > 100 nM, respectively.
In the case of `CNC(=O)c1cnc(Nc2ccc(N3CCN(c4cccc5c4n(C)c(=O)n5C4CCC(=O)NC4=O)CC3)cn2)cc1Nc1cccc(-c2ncc(F)cn2)c1OC` (stereo not drawn) [Example K702], the figures for the DC50 on TYK2 [1], on TYK2 [2] and on TYK2 [3] were > 100 nM, > 100 nM and 1 to 10 nM, respectively.
For the compound `CNC(=O)c1cnc(Nc2ccc(C3CN(Cc4cccc5c4n(C)c(=O)n5C4CCC(=O)NC4=O)C3)cn2)cc1Nc1cccc(-c2ncc(F)cn2)c1OC` (stereo not drawn) [Example K703], the DC50 on TYK2 [1] was > 100 nM; on TYK2 [2] it was > 100 nM; on TYK2 [3], < 1 nM.
Take `CNC(=O)c1cnc(Nc2ccc(CN(C)C3CCN(c4cccc5c4n(C)c(=O)n5C4CCC(=O)NC4=O)CC3)cn2)cc1Nc1cccc(-c2ncc(F)cn2)c1OC` (stereo not drawn) [Example K704]: the 50% degradation concentration (DC50) at TYK2 [1] is > 100 nM; on TYK2 [2] it was < 1 nM; on TYK2 [3] it was < 1 nM.
Turning to `CNC(=O)c1cnc(Nc2ccc(CN3CCC(N(C)c4cccc5c4n(C)c(=O)n5C4CCC(=O)NC4=O)C3)cn2)cc1Nc1cccc(-c2ncc(F)cn2)c1OC` (stereo not drawn) [Example K705], the DC50 at TYK2 [1] is > 100 nM; at TYK2 [2], > 100 nM; on TYK2 [3], < 1 nM.
For the compound `CNC(=O)c1cnc(Nc2ccc(C(=O)NCCCCc3ccc4c(c3)n(C)c(=O)n4C3CCC(=O)NC3=O)cn2)cc1Nc1ccccc1OC` (stereo not drawn) [Example K706], the DC50 on TYK2 [1], on TYK2 [2] and on TYK2 [3] was > 100 nM throughout.
As to `CNC(=O)c1cnc(Nc2ccc(C3CN(Cc4ccc5c(c4)n(C)c(=O)n5C4CCC(=O)NC4=O)C3)cn2)cc1Nc1cccc(-c2ncc(F)cn2)c1OC` (stereo not drawn) [Example K707], the figures for the DC50 on TYK2 [1], at TYK2 [2] and on TYK2 [3] were > 100 nM, > 100 nM and 1 to 10 nM, respectively.
`CNC(=O)c1cnc(Nc2ccc(CN3CCC(OCC#Cc4ccc5c(c4)n(C)c(=O)n5C4CCC(=O)NC4=O)CC3)cn2)cc1Nc1cccc(-c2ncc(F)cn2)c1OC` (stereo not drawn) [Example K708]: the DC50 on TYK2 [1] is > 100 nM; on TYK2 [2], > 100 nM; at TYK2 [3], < 1 nM.
Regarding `CCNC(=O)c1cnc(Nc2cc(CN3CCN(c4ccc5c(c4)n(C)c(=O)n5C4CCC(=O)NC4=O)CC3)ccn2)cc1Nc1cccc(-c2ncc(F)cn2)c1OC` (stereo not drawn) [Example K709], the figures for the DC50 on TYK2 [1], at TYK2 [2] and at TYK2 [3] were > 100 nM, > 100 nM and 1 to 10 nM, respectively.
For `[2H]C([2H])([2H])NC(=O)c1nnc(Nc2ccc(C(=O)N(C)C3CCN(c4cccc5c4n(C)c(=O)n5C4CCC(=O)NC4=O)CC3)cn2)cc1Nc1cccc(F)c1OC` (stereo not drawn) [Example K710], the DC50 was > 100 nM on TYK2 [1], > 100 nM on TYK2 [2] and < 1 nM at TYK2 [3].
With `[2H]C([2H])([2H])NC(=O)c1nnc(Nc2ccc(CN3CCN(c4ccc5c(c4)n(C)c(=O)n5C4CCC(=O)NC4=O)CC3)cn2)cc1Nc1cccc(F)c1OC` (stereo not drawn) [Example K711], the DC50 on TYK2 [1], on TYK2 [2] and at TYK2 [3] was > 100 nM in each case.
In the case of `[2H]C([2H])([2H])NC(=O)c1nnc(Nc2ccc(CN(C)CC3CCN(c4ccc5c(c4)n(C)c(=O)n5C4CCC(=O)NC4=O)CC3)cn2)cc1Nc1cccc(F)c1OC` (stereo not drawn) [Example K712], the figures for the DC50 at TYK2 [1], at TYK2 [2] and at TYK2 [3] were > 100 nM, > 100 nM and < 1 nM, respectively.
